Experimental data from patent US20060069132A1, “Azolecarboxamide herbicides” (priority 2004, published 2006).

How the values were obtained:
Test in all cases: Test C postemergence herbicide test
green foxtail = assay type: in vivo, Setaria viridis
Outline: (§1)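 Weeds and wheat were sprayed after emergence, at a height of 2 to 18 cm (1–4 leaves), and paddy barnyardgrass was flooded and treated at two leaves. Assessment took place 12–14 days later in the greenhouse on a 0-to-100 visual control scale. A dash means no result was obtained.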

wild oat = assay type: in vivo, Avenafatua
Outline: as §1

Italian ryegrass = assay type: in vivo, Lolium multiflorum
Outline: as §1

canarygrass = assay type: in vivo, Phalaris minor
Outline: as §1

wheat = assay type: in vivo, Triticum aestivum
Outline: as §1

downy bromegrass = assay type: in vivo, Bromus tectorum
Outline: as §1

blackgrass = assay type: in vivo, Alopecurus myosuroides; details: for Blackgrass plant response rating: 500 g ai/ha
Outline: as §1

windgrass = assay type: in vivo, Apera spica-venti
Outline: as §1

winter barley = assay type: in vivo, Hordeum vulgare; details: for Barley, Winter plant response rating: 500 g ai/ha
Outline: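 Greenhouse test with a 12–14 day hold after application and visual comparison with controls. Emerged plants were 1- to 4-leaf stage (2–18 cm) when sprayed postemergence, and the paddy barnyardgrass was at 2 leaves under flooded conditions. 100 = complete control.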

[1] = Postemergence, 250 g ai/ha, scale 0 to 100, 0 no effect, 100 complete control
[2] = postemergence, 125 g ai/ha, scale 0 to 100
[3] = postemergence, 62 g ai/ha, scale 0 to 100
[4] = postemergence, 31 g ai/ha, scale 0 to 100
[5] = postemergence, 125 g ai/ha, scale 0 to 100 (0 no effect, 100 complete control)
[6] = postemergence, 62 g ai/ha, scale 0 to 100 (0 no effect, 100 complete control)
[7] = Postemergence, 500 g ai/ha, scale 0 to 100
[8] = Postemergence, 500 g ai/ha, scale 0 to 100, 0 no effect, 100 complete control

| Structure (SMILES) | Plant response rating, Foxtail, Green (green foxtail; [1]) | Plant response rating, Foxtail, Green (green foxtail; [2]) | Plant response rating, Foxtail, Green (green foxtail; [3]) | Plant response rating, Oat, Wild (wild oat; [2]) | Plant response rating, Oat, Wild (wild oat; [3]) | Plant response rating, Ryegrass, Italian (Italian ryegrass; [2]) | Plant response rating, Ryegrass, Italian (Italian ryegrass; [3]) | Plant response rating, Canarygrass (canarygrass; [1]) | Plant response rating, Canarygrass (canarygrass; [2]) | Plant response rating, Canarygrass (canarygrass; [3]) | Plant response rating, Wheat (wheat; [2]) | Plant response rating, Wheat (wheat; [3]) | Plant response rating, Bromegrass, Downy (downy bromegrass; [1]) | Plant response rating, Bromegrass, Downy (downy bromegrass; [3]) | Plant response rating, Blackgrass (blackgrass; [1]) | Plant response rating, Blackgrass (blackgrass; [2]) | Plant response rating, Blackgrass (blackgrass; [3]) | Plant response rating, Windgrass (windgrass; [2]) | Plant response rating, Windgrass (windgrass; [3]) | Plant response rating, Barley, Winter (winter barley; [1]) | also measured |
| --- | --- | --- | --- | --- | --- | --- | --- | --- | --- | --- | --- | --- | --- | --- | --- | --- | --- | --- | --- | --- | --- |
| CCOC(=O)c1ccc(F)c(NC(=O)c2cc(C3(C)CC3)nn2CC)c1 [Compound 296] | 60 | 50 | 40 | 60 | 35 | 45 | 35 | 55 | 40 | 30 | 35 | 35 | 45 | 35 | 75 | 65 | 60 | 50 | 45 | 45 | Plant response rating, Oat, Wild (wild oat; [1]): 60; Plant response rating, Ryegrass, Italian (Italian ryegrass; [1]): 65; Plant response rating, Canarygrass (canarygrass; [4]): 30; Plant response rating, Wheat (wheat; [1]): 40; Plant response rating, Bromegrass, Downy (downy bromegrass; [2]): 35; Plant response rating, Bromegrass, Downy (downy bromegrass; [4]): 25; Plant response rating, Blackgrass (blackgrass; [4]): 45; Plant response rating, Windgrass (windgrass; [1]): 65; Plant response rating, Barley, Winter (winter barley; [5]): 40; Plant response rating, Barley, Winter (winter barley; [4]): 30; Plant response rating, Barley, Winter (winter barley; [6]): 35 |
| CCn1nc(C2(C)CC2)cc1C(=O)Nc1cccc(C(=O)N2CC=CC2)c1 [Compound 304] | 50 | 45 | 40 | 60 | 60 | 50 | 50 | 45 | 40 | 40 | 40 | 35 | 40 | 40 | 70 | 50 | 60 | 35 | 35 | 35 | Foxtail, Green plant response rating (green foxtail; [7]): 60; Oat, Wild plant response rating (wild oat; [7]): 70; Plant response rating, Oat, Wild (wild oat; [1]): 60; Ryegrass, Italian plant response rating (Italian ryegrass; [7]): 50; Plant response rating, Ryegrass, Italian (Italian ryegrass; [1]): 50; Canarygrass plant response rating (canarygrass; [7]): 45; Wheat plant response rating (wheat; [7]): 40; Plant response rating, Wheat (wheat; [1]): 40; Bromegrass, Downy plant response rating (downy bromegrass; [7]): 50; Plant response rating, Bromegrass, Downy (downy bromegrass; [2]): 40; Blackgrass plant response rating (blackgrass; Postemergence, scale 0 to 100): 95; Windgrass plant response rating (windgrass; [7]): 45; Plant response rating, Windgrass (windgrass; [1]): 40; Barley, Winter plant response rating (winter barley; Postemergence, scale 0 to 100): 45; Plant response rating, Barley, Winter (winter barley; [5]): 35; Plant response rating, Barley, Winter (winter barley; [6]): 35 |
| CCn1nc(C(C)(C)C)cc1C(=O)Nc1cccc(OC(F)(F)C(F)F)c1 [Compound 333] | 50 | 40 | 30 | 60 | 50 | 35 | 35 | 40 | 35 | 35 | 50 | 40 | 45 | 40 | 50 | 40 | 30 | 25 | 20 | 55 | Foxtail, Green plant response rating (green foxtail; [7]): 65; Oat, Wild plant response rating (wild oat; [7]): 55; Plant response rating, Oat, Wild (wild oat; [1]): 60; Ryegrass, Italian plant response rating (Italian ryegrass; [7]): 55; Plant response rating, Ryegrass, Italian (Italian ryegrass; [1]): 50; Canarygrass plant response rating (canarygrass; [7]): 45; Wheat plant response rating (wheat; [7]): 55; Plant response rating, Wheat (wheat; [1]): 50; Bromegrass, Downy plant response rating (downy bromegrass; [7]): 45; Blackgrass plant response rating (blackgrass; Postemergence, scale 0 to 100): 55; Windgrass plant response rating (windgrass; [7]): 80; Plant response rating, Windgrass (windgrass; [1]): 50; Plant response rating, Barley, Winter (winter barley; [5]): 45; Plant response rating, Barley, Winter (winter barley; [6]): 40 |
| CCNC(=O)c1cccc(NC(=O)c2nn(C(C)(C)CC)nc2CC)c1 [Compound 376] | 60 | 60 | 40 | 45 | 40 | 55 | 45 | 55 | 50 | 45 | 20 | 20 | 40 | 35 | 50 | 40 | 40 | 40 | 40 | 30 | Plant response rating, Foxtail, Green (green foxtail; [8]): 65; Plant response rating, Oat, Wild (wild oat; [8]): 60; Plant response rating, Ryegrass, Italian (Italian ryegrass; [8]): 65; Plant response rating, Canarygrass (canarygrass; [8]): 65; Plant response rating, Wheat (wheat; [8]): 25; Plant response rating, Bromegrass, Downy (downy bromegrass; [8]): 50; Plant response rating, Bromegrass, Downy (downy bromegrass; [2]): 35; Blackgrass plant response rating (blackgrass; Postemergence, scale 0 to 100): 65; Plant response rating, Windgrass (windgrass; [8]): 65; Barley, Winter plant response rating (winter barley; Postemergence, scale 0 to 100): 40; Plant response rating, Barley, Winter (winter barley; [5]): 20; Plant response rating, Barley, Winter (winter barley; [6]): 20 |
| C#CCNC(=O)c1cccc(NC(=O)c2nn(C(C)(C)C)nc2CC)c1 [Compound 380] | 60 | 60 | 60 | 60 | 55 | 50 | 45 | 45 | 40 | 40 | 25 | 20 | 65 | 55 | 55 | 45 | 40 | 60 | 45 | 30 | Plant response rating, Canarygrass (canarygrass; [4]): 30; Plant response rating, Bromegrass, Downy (downy bromegrass; [2]): 60; Plant response rating, Bromegrass, Downy (downy bromegrass; [4]): 45; Plant response rating, Blackgrass (blackgrass; [4]): 40; Plant response rating, Barley, Winter (winter barley; [5]): 20; Plant response rating, Barley, Winter (winter barley; [4]): 10; Plant response rating, Barley, Winter (winter barley; [6]): 20 |
| C#CCOc1cccc(NC(=O)c2cc(C(C)(C)C)nn2CC)c1 [Compound 411] | 65 | 65 | 60 | 60 | 60 | 60 | 45 | 65 | 60 | 60 | 35 | 35 | 45 | 40 | 65 | 65 | 50 | 55 | 40 | 35 | Plant response rating, Foxtail, Green (green foxtail; [8]): 70; Plant response rating, Oat, Wild (wild oat; [8]): 65; Plant response rating, Ryegrass, Italian (Italian ryegrass; [8]): 65; Plant response rating, Canarygrass (canarygrass; [8]): 65; Plant response rating, Wheat (wheat; [8]): 55; Plant response rating, Bromegrass, Downy (downy bromegrass; [8]): 45; Plant response rating, Bromegrass, Downy (downy bromegrass; [2]): 40; Blackgrass plant response rating (blackgrass; Postemergence, scale 0 to 100): 70; Plant response rating, Windgrass (windgrass; [8]): 65; Barley, Winter plant response rating (winter barley; Postemergence, scale 0 to 100): 40; Plant response rating, Barley, Winter (winter barley; [5]): 35; Plant response rating, Barley, Winter (winter barley; [6]): 30 |
